Source: patent US9499550B2 (BRISTOL-MYERS SQUIBB COMPANY, priority 2012, dated 2016)
Like-named read-outs stand apart in the source and are kept apart here.

Assays:
[1] = test system: HCV genotype 1a (H77 strain) replicon in HUH-7 cells; assay: HCV replicon luciferase reporter assay, genotype 1a; type: cell-based; conditions: Hepatitis C virus, Huh-7, 72 h, 3 days incubation, read-out: LE_1a (EC50, range)
Procedure, shortened: (§1)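 Replicon inhibition for both genotypes was measured as Renilla luciferase signal (EnduRen, 7.5 μM final, 2 h) after 3-day, 37° C exposure of replicon-bearing HUH-7 cells in 4% FCS DMEM, 0.5% DMSO. The 1b construct carries S1179I; the 1a H77 construct carries P1496L and S2204I. Twenty-point, 3-fold dilutions were fitted four-parametrically for EC50, and CC50 was taken from multiplexed Cell Titer-Blue.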

[2] = test system: HCV genotype 1b (Con1) replicon in HUH-7 cells; assay: HCV replicon luciferase reporter assay, genotype 1b; type: cell-based; conditions: Hepatitis C virus, Huh-7, 72 h, 3 days incubation, read-out: LE_1b (EC50, range)
Procedure, shortened: as §1

[3] = HCV genotype 1a replicon luciferase
[4] = HCV genotype 1b replicon luciferase
[5] = HCV genotype 1a replicon luciferase assay, range class
[6] = HCV genotype 1b replicon luciferase assay, range class

Compound | EC50 [1, 3] [nM] | EC50 [2, 4] [nM] | EC50 [1, 5] [nM] | EC50 [2, 6] [nM]
C[C@@H]1CC/C=C\[C@@H]2C[C@@]2(C(=O)NS(=O)(=O)C2CC2)NC(=O)[C@@H]2C[C@@H](Oc3nccc4c5c(ccc34)OC(F)(F)O5)CN2C(=O)[C@@H](NC(=O)OCC2(C)CC2)[C@H](C)C1 [Compound 5272, (1-methylcyclopropyl)methyl ((2R,6S,7R,9R,13aS,14aR,16aS,Z)-14a-((cyclopropylsulfonyl)carbamoyl)-2-((2,2-difluoro-[1,3]dioxolo[4,5-f]isoquinolin-6-yl)oxy)-7,9-dimethyl-5,16-dioxo-1,2,3,5,6,7,8,9,10,11,13a,14,14a,15,16,16a-hexadecahydrocyclopropa[e]pyrrolo[1,2-a][1,4]diazacyclopentadecin-6-yl)carbamate] | < 5.46 | < 5.46 | – | –
COc1cc2ccnc(O[C@@H]3C[C@H]4C(=O)N[C@]5(C(=O)NS(=O)(=O)C6CC6)C[C@H]5/C=C\CC[C@@H](C)C[C@@H](C)[C@H](NC(=O)OC(C)(C)C(C)(F)F)C(=O)N4C3)c2cc1OC [Compound 5389, 3,3-difluoro-2-methylbutan-2-yl((2R,6S,7R,9R,13aS,14aR,16aS,Z)-14a-((cyclopropylsulfonyl)carbamoyl)-2-((6,7-dimethoxyisoquinolin-1-yl)oxy)-7,9-dimethyl-5,16-dioxo-1,2,3,5,6,7,8,9,10,11,13a,14,14a,15,16,16a-hexadecahydrocyclopropa[e]pyrrolo[1,2-a][1,4]diazacyclopentadecin-6-yl)carbamate] | 1.01 to 5 | 1.01 to 5 | – | –
CCOc1cnc(O[C@@H]2C[C@H]3C(=O)N[C@]4(C(=O)NS(=O)(=O)C5CC5)C[C@H]4/C=C\CC[C@@H](C)C[C@@H](C)[C@H](NC(=O)OC(C)(C)C(F)(F)F)C(=O)N3C2)c2cccc(Cl)c12 [Compound 4025] | < 5.46 | < 5.46 | – | –
COc1ccc2c(O[C@@H]3C[C@H]4C(=O)N[C@]5(C(=O)NS(=O)(=O)C6(C)CC6)C[C@H]5/C=C\CC[C@H](C)C[C@@H](C)[C@H](NC(=O)OC(C)(C)C)C(=O)N4C3)nc(N3CCOCC3)cc2c1 [Compound 3088, tert-butyl ((2R,6S,7R,9S,13aS,14aR,16aS,Z)-2-((6-methoxy-3-morpholinoisoquinolin-1-yl)oxy)-7,9-dimethyl-14a-(((1-methylcyclopropyl)sulfonyl)carbamoyl)-5,16-dioxo-1,2,3,5,6,7,8,9,10,11,13a,14,14a,15,16,16a-hexadecahydrocyclopropa[e]pyrrolo[1,2-a][1,4]diazacyclopentadecin-6-yl)carbamate] | – | – | < 5.46 | < 5.46
COc1cnc(O[C@@H]2C[C@H]3C(=O)N[C@]4(C(=O)NS(=O)(=O)C5(CO)CC5)C[C@H]4/C=C\CC[C@@H](C)C[C@@H](C)[C@H](N)C(=O)N3C2)c2ccccc12 [Compound 4112, (2R,6S,7R,9R,13aS,14aR,16aS,Z)-6-amino-N-(1-(hydroxymethyl)cyclopropylsulfonyl)-2-(4-methoxyisoquinolin-1-yloxy)-7,9-dimethyl-5,16-dioxo-1,2,3,5,6,7,8,9,10,11,13a,14,14a,15,16,16a-hexadecahydrocyclopropa[e]pyrrolo[1,2-a][1,4]diazacyclopentadecine-14a-carboxamide] | > 87.4 | > 87.4 | – | –
COc1ccc2c(O[C@@H]3C[C@H]4C(=O)N[C@]5(C(=O)NS(=O)(=O)C6(C)CC6)C[C@H]5/C=C\CC[C@H](C)C[C@@H](C)[C@H](NC(=O)OC(C)(C)C)C(=O)N4C3)nc(OC)cc2c1 [Compound 1130, tert-butyl ((2R,6S,7R,9S,13aS,14aR,16aS,Z)-2-((3,6-dimethoxyisoquinolin-1-yl)oxy)-7,9-dimethyl-14a-(((1-methylcyclopropyl)sulfonyl)carbamoyl)-5,16-dioxo-1,2,3,5,6,7,8,9,10,11,13a,14,14a,15,16,16a-hexadecahydrocyclopropa[e]pyrrolo[1,2-a][1,4]diazacyclopentadecin-6-yl)carbamate] | – | – | < 5.46 | < 5.46
CCOc1cc2ccnc(O[C@@H]3C[C@H]4C(=O)N[C@]5(C(=O)NS(=O)(=O)C6(C)CC6)C[C@H]5/C=C\CC[C@@H](C)C[C@@H](C)[C@H](NC(=O)OC(C)(C)C(F)(F)F)C(=O)N4C3)c2cc1F [Compound 5395, 1,1,1-trifluoro-2-methylpropan-2-yl((2R,6S,7R,9R,13aS,14aR,16aS,Z)-2-((6-ethoxy-7-fluoroisoquinolin-1-yl)oxy)-7,9-dimethyl-14a-(((1-methylcyclopropyl)sulfonyl)carbamoyl)-5,16-dioxo-1,2,3,5,6,7,8,9,10,11,13a,14,14a,15,16,16a-hexadecahydrocyclopropa[e]pyrrolo[1,2-a][1,4]diazacyclopentadecin-6-yl)carbamate] | 1.01 to 5 | 0.51 to 1 | – | –
COc1ccc2c(O[C@@H]3C[C@H]4C(=O)N[C@]5(C(=O)NS(=O)(=O)C6(C)CC6)C[C@H]5/C=C\CC[C@@H](C)C[C@@H](C)[C@H](NC(=O)O[C@H](C)C(F)(F)F)C(=O)N4C3)nc(N(C)C)cc2c1 [Compound 3113, (R)-1,1,1-trifluoropropan-2-yl ((2R,6S,7R,9R,13aS,14aR,16aS,Z)-2-((3-(dimethylamino)-6-methoxyisoquinolin-1-yl)oxy)-7,9-dimethyl-14a-(((1-methylcyclopropyl)sulfonyl)carbamoyl)-5,16-dioxo-1,2,3,5,6,7,8,9,10,11,13a,14,14a,15,16,16a-hexadecahydrocyclopropa[e]pyrrolo[1,2-a][1,4]diazacyclopentadecin-6-yl)carbamate] | – | – | < 5.46 | 4.82 to 103
CC(C)Oc1ccc2c(O[C@@H]3C[C@H]4C(=O)N[C@]5(C(=O)NS(=O)(=O)C6(C)CC6)C[C@H]5/C=C\CC[C@H](C)C[C@@H](C)[C@H](NC(=O)O[C@@H]5C[C@@H]6C[C@@H]6C5)C(=O)N4C3)nccc2c1 [Compound 5162, (1R,3r,5S)-bicyclo[3.1.0]hexan-3-yl((2R,6S,7R,9S,13aS,14aR,16aS,Z)-2-((6-isopropoxyisoquinolin-1-yl)oxy)-7,9-dimethyl-14a-(((1-methylcyclopropyl)sulfonyl)carbamoyl)-5,16-dioxo-1,2,3,5,6,7,8,9,10,11,13a,14,14a,15,16,16a-hexadecahydrocyclopropa[e]pyrrolo[1,2-a][1,4]diazacyclopentadecin-6-yl)carbamate] | 4.82 to 103 | < 5.46 | – | –
COc1cc2cc(F)ccc2c(O[C@@H]2C[C@H]3C(=O)N[C@]4(C(=O)NS(=O)(=O)C5(CF)CC5)C[C@H]4/C=C\CC[C@@H](C)C[C@@H](C)[C@H](NC(=O)OC(C)(C)C(F)(F)F)C(=O)N3C2)n1 [Compound 3214, 1,1,1-trifluoro-2-methylpropan-2-yl((2R,6S,7R,9R,13aS,14aR,16aS,Z)-2-((6-fluoro-3-methoxyisoquinolin-1-yl)oxy)-14a-(((1-(fluoromethyl)cyclopropyl)sulfonyl)carbamoyl)-7,9-dimethyl-5,16-dioxo-1,2,3,5,6,7,8,9,10,11,13a,14,14a,15,16,16a-hexadecahydrocyclopropa[e]pyrrolo[1,2-a][1,4]diazacyclopentadecin-6-yl)carbamate] | 1.01 to 5 | 0.1 to 0.5 | – | –
